These results are taken from US20060115804A1, “Method of studying living cells” (priority 2002, published 2006).

Molecules are shown by their SMILES.

The assay has as its system Primary human osteoblasts. In words: Formation and mineralisation of bone nodules (962 cm^-1 hydroxyapatite Raman peak) by osteoblasts cultured on 45S5 Bioglass. The class given is cell-based. The following applies: culture medium supplemented with BGP; cells on 45S5 Bioglass substrates. On the procedure: Primary human osteoblasts were cultured on 45S5 Bioglass® substrates in order to induce formation of new bone. The formation of new bone can be detected with high sensitivity using Raman spectroscopy with 785 nm lasers by detecting the 962 cm^−1 Raman peak of hydroxyapatite (the mineral phase of bone). […] Only peaks corresponding to intrinsic cellular components were measured.

On to `O=P(O)(O)OC(CO)CO` [beta-glycerophosphate (BGP), beta-glycerophosphate], for which the “Hydroxyapatite Raman peak (formation of bone nodules)” value was “a strong peak corresponding to hydroxyapatite was detected”.
